system: rat small-intestinal brush border membrane vesicles; experiment: Inhibitory effect on 33PO4 uptake into rat small-intestinal brush border membrane vesicles (rapid filtration method); format: biochemical, Wistar female rat; conditions: 1 µM test compound; 33PO4 uptake into rat small-intestinal BBMVs, 60 seconds
In short: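 33PO4 uptake into rat small-intestinal brush border membrane vesicles measured by rapid filtration. Reactions were stopped with ice-cold buffer (110 mM NaCl, 1 mM KH2PO4, 10 mM HEPES pH 7.5), filtered and washed. Vesicle-associated radioactivity was counted by liquid scintillation.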

Point of comparison: `Cc1cccc(CN2C(=O)C(C(=O)Nc3ccc(C(F)(F)F)cc3-c3ccc(C(F)(F)F)nc3)=C(O)[C@@]3(C)CCCN23)c1F` [Example 205], “Rate of uptake inhibition (%) (1 µM)” value 86%. Against it:
- C[C@]12CCCN1N(Cc1cccc(Cl)c1)C(=O)C(C(=O)Nc1ccc(C(F)(F)F)cc1-c1ccc(C(F)(F)F)nc1)=C2O [Example 169] — lower, 73%
- C[C@]12CCCN1N(Cc1ccc(F)c(F)c1)C(=O)C(C(=O)Nc1ccc(C(F)(F)F)cc1-c1ccc(C(F)(F)F)nc1)=C2O [Example 170] — lower, 73%
- C[C@]12CCCN1N(Cc1cc(F)cc(F)c1)C(=O)C(C(=O)Nc1ccc(C(F)(F)F)cc1-c1ccc(C(F)(F)F)nc1)=C2O [Example 171] — lower, 78%
- C[C@]12CCCN1N(Cc1cc(F)ccc1F)C(=O)C(C(=O)Nc1ccc(C(F)(F)F)cc1-c1ccc(C(F)(F)F)nc1)=C2O [Example 172] — lower, 72%
- C[C@]12CCCN1N(Cc1ccc(F)cc1F)C(=O)C(C(=O)Nc1ccc(C(F)(F)F)cc1-c1ccc(C(F)(F)F)nc1)=C2O [Example 173] — lower, 73%
- C[C@]12CCCN1N(Cc1cccc(F)c1Cl)C(=O)C(C(=O)Nc1cc(F)c(Br)c(F)c1)=C2O [Example 174] — higher, 87%
- COc1cccc(CN2C(=O)C(C(=O)Nc3ccc(C(F)(F)F)cc3-c3ccc(C(F)(F)F)nc3)=C(O)[C@@]3(C)CCCN23)c1OC [Example 175] — lower, 85%
- COc1ccc(OC)c(CN2C(=O)C(C(=O)Nc3ccc(C(F)(F)F)cc3-c3ccc(C(F)(F)F)nc3)=C(O)[C@@]3(C)CCCN23)c1 [Example 176] — lower, 75%
- C[C@]12CCCN1N(Cc1cccc(OC(F)F)c1)C(=O)C(C(=O)Nc1ccc(C(F)(F)F)cc1-c1cc(C(F)(F)F)ncn1)=C2O [Example 177] — lower, 85%
- C[C@]12CCCN1N(Cc1ccccc1C#N)C(=O)C(C(=O)Nc1ccc(C(F)(F)F)cc1-c1cc(C(F)(F)F)ncn1)=C2O [Example 178] — lower, 81%
- C[C@]12CCCN1N(Cc1cccc(C#N)c1)C(=O)C(C(=O)Nc1ccc(C(F)(F)F)cc1-c1cc(C(F)(F)F)ncn1)=C2O [Example 179] — lower, 83%
- C[C@]12CCCN1N(Cc1ccccc1Cl)C(=O)C(C(=O)Nc1ccc(C(F)(F)F)cc1-c1cc(C(F)(F)F)ncn1)=C2O [Example 180] — lower, 75%
- C[C@]12CCCN1N(Cc1cccc(Cl)c1)C(=O)C(C(=O)Nc1ccc(C(F)(F)F)cc1-c1cc(C(F)(F)F)ncn1)=C2O [Example 181] — lower, 85%
- C[C@]12CCCN1N(Cc1ccc(Cl)cc1)C(=O)C(C(=O)Nc1ccc(C(F)(F)F)cc1-c1cc(C(F)(F)F)ncn1)=C2O [Example 182] — the same, 86%
- COC(=O)c1cccc(CN2C(=O)C(C(=O)Nc3ccc(C(F)(F)F)cc3-c3cc(C(F)(F)F)ncn3)=C(O)[C@@]3(C)CCCN23)c1 [Example 183] — lower, 82%
- C[C@]12CCCN1N(Cc1ccc(F)c(Br)c1)C(=O)C(C(=O)Nc1ccc(C(F)(F)F)cc1-c1cc(C(F)(F)F)ncn1)=C2O [Example 184] — lower, 79%
- Cc1ccccc1CN1C(=O)C(C(=O)Nc2ccc(C(F)(F)F)cc2-c2cc(C(F)(F)F)ncn2)=C(O)[C@@]2(C)CCCN12 [Example 185] — lower, 83%
- Cc1cccc(CN2C(=O)C(C(=O)Nc3ccc(C(F)(F)F)cc3-c3cc(C(F)(F)F)ncn3)=C(O)[C@@]3(C)CCCN23)c1 [Example 186] — higher, 88%
- Cc1ccc(CN2C(=O)C(C(=O)Nc3ccc(C(F)(F)F)cc3-c3cc(C(F)(F)F)ncn3)=C(O)[C@@]3(C)CCCN23)cc1 [Example 187] — lower, 80%
- C[C@]12CCCN1N(Cc1ccccc1)C(=O)C(C(=O)Nc1ccc(C(F)(F)F)cc1-c1cc(C(F)(F)F)ncn1)=C2O [Example 188] — higher, 93%
- C[C@]12CCCN1N(Cc1cccc(OC(F)(F)F)c1)C(=O)C(C(=O)Nc1ccc(C(F)(F)F)cc1-c1cc(C(F)(F)F)ncn1)=C2O [Example 189] — lower, 73%
- C[C@]12CCCN1N(Cc1cc(F)cc(F)c1)C(=O)C(C(=O)Nc1cc(F)c(Br)c(F)c1)=C2O [Example 190] — lower, 84%
- C[C@]12CCCN1N(Cc1ccc(F)c(F)c1)C(=O)C(C(=O)Nc1cc(F)c(Br)c(F)c1)=C2O [Example 191] — higher, 87%
- C[C@]12CCCN1N(Cc1ccc(F)cc1F)C(=O)C(C(=O)Nc1cc(F)c(Br)c(F)c1)=C2O [Example 192] — higher, 88%
- C[C@]12CCCN1N(Cc1cc(F)ccc1F)C(=O)C(C(=O)Nc1cc(F)c(Br)c(F)c1)=C2O [Example 193] — lower, 82%
- C[C@]12CCCN1N(Cc1cc(F)c(F)cc1F)C(=O)C(C(=O)Nc1cc(F)c(Br)c(F)c1)=C2O [Example 194] — lower, 80%
- Cc1cccc(CN2C(=O)C(C(=O)Nc3cc(F)c(Br)c(F)c3)=C(O)[C@@]3(C)CCCN23)c1F [Example 195] — lower, 76%
- C[C@]12CCCN1N(Cc1cc(F)c(F)c(F)c1)C(=O)C(C(=O)Nc1cc(F)c(Br)c(F)c1)=C2O [Example 197] — lower, 82%
- C[C@]12CCCN1N(Cc1cccc(Cl)c1F)C(=O)C(C(=O)Nc1ccc(C(F)(F)F)cc1-c1ccc(C(F)(F)F)nc1)=C2O [Example 198] — lower, 75%
- C[C@]12CCCN1N(Cc1ccc(F)cc1)C(=O)C(C(=O)Nc1ccc(C(F)(F)F)cc1-c1ccc(C(F)(F)F)nc1)=C2O [Example 199] — lower, 79%
- C[C@]12CCCN1N(Cc1ccccc1F)C(=O)C(C(=O)Nc1ccc(C(F)(F)F)cc1-c1ccc(C(F)(F)F)nc1)=C2O [Example 200] — lower, 80%
- C[C@]12CCCN1N(Cc1cccc(F)c1Cl)C(=O)C(C(=O)Nc1ccc(C(F)(F)F)cc1-c1ccc(C(F)(F)F)nc1)=C2O [Example 201] — lower, 77%
- COc1cc(CN2C(=O)C(C(=O)Nc3ccc(C(F)(F)F)cc3-c3ccc(C(F)(F)F)nc3)=C(O)[C@@]3(C)CCCN23)cc(OC)c1 [Example 202] — lower, 75%
- C[C@]12CCCN1N(Cc1c(F)cccc1F)C(=O)C(C(=O)Nc1ccc(C(F)(F)F)cc1-c1ccc(C(F)(F)F)nc1)=C2O [Example 203] — higher, 91%
- C[C@]12CCCN1N(Cc1c(F)cccc1Cl)C(=O)C(C(=O)Nc1ccc(C(F)(F)F)cc1-c1ccc(C(F)(F)F)nc1)=C2O [Example 204] — higher, 87%
- C[C@]12CCCN1N(Cc1cccc(F)c1)C(=O)C(C(=O)Nc1ccc(C(F)(F)F)cc1-c1ccc(C(F)(F)F)nc1)=C2O [Example 206] — lower, 76%
- C[C@]12CCCN1N(Cc1ccccc1F)C(=O)C(C(=O)Nc1ccc(C(F)(F)F)cc1-c1cc(C(F)(F)F)ncn1)=C2O [Example 207] — lower, 73%
- C[C@]12CCCN1N(Cc1ccc(F)cc1)C(=O)C(C(=O)Nc1ccc(C(F)(F)F)cc1-c1cc(C(F)(F)F)ncn1)=C2O [Example 208] — higher, 90%
- C[C@]12CCCN1N(Cc1cccc(Cl)c1F)C(=O)C(C(=O)Nc1ccc(C(F)(F)F)cc1-c1cc(C(F)(F)F)ncn1)=C2O [Example 209] — lower, 76%

From EP2975030B1, “DIHYDROPYRIDAZINE-3,5-DIONE DERIVATIVE” (Chugai Seiyaku Kabushiki Kaisha, priority 2013, dated 2014)
